Broadly, the inhibition is the relative decrease from the control value, in per cent. By IC50 is commonly meant the concentration that inhibits the measured activity by half.

16 molecules from patent publication US5760036A, “Aminediol protease inhibitors” (E. R. Squibb & Sons, Inc., priority 1995, dated 1998) can be followed below.

Counter-ions that a name gives are not always drawn. Like-named read-outs stand apart in the source and are kept apart here.

One experiment has as its target T1, HIV protease (Human immunodeficiency virus type 1 group M subtype B, UniProt P04585).
T1 construct: and purified protease
The experiment can be described thus: HIV Protease Assay. It is filed as biochemical. The gist of the method:
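At a single final concentration of 10 μM (4% DMSO), inhibitors were added to a 30-minute, 37° C reaction of purified enzyme with 450 μM H2N-Val-Ser-Gln-Asn-(β-naphthyl-alanine)-Pro-Val-Ile-OH at pH 5.5 (sodium acetate, BSA). Hydrolysis was quantified by reverse-phase HPLC with 220 nm detection after acid quench.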

Experiment [1] deals with RF strain of HIV (CEM-SS cells). Nature of the experiment: Cell Culture Anti-HIV Activity (cell viability, formazan). It is filed as cell-based. The following applies: Human immunodeficiency virus 1, CEM-SS, 144 h. The procedure:
The antiviral activity of aminediol inhibitors of the present invention was evaluated by a microculture method which determines the increase in cell viability of an infected culture when a drug is added. The assay depends on the metabolic reduction of tetrazolium reagent by viable cells to yield a soluble colored formazan product.
The assay was performed as follows: suspensions of CEM-SS cells (5000/well) were infected with the RF strain of HIV at a multiplicity of infection at 0.04 in a 96-well plate. The compounds of the present invention listed in the following Table 1, serially diluted in half-log fashion, were added to the infected and uninfected control cells. Untreated (infected and uninfected) cells were included as controls. Following incubation for 6 days at 37° C., viable cells in each well were quantitated by the visible light absorbance at 450 nm.
The IC50 was calculated as the concentration of drug that increased the formazan production in virally infected cells to 50% of that produced by uninfected cells in the absence of drug.

The mark [2] stands for this setting: pH 5.5, 10 μM inhibitor, 4% DMSO, 450 μM substrate, pH 5.5, 30 minutes at 37° C., RP-HPLC, read-out: HIV Protease % Inhibition at 10 μM.
The mark [3] stands for this setting: CEM-SS cells, RF strain of HIV, multiplicity of infection 0.04, 6 days at 37° C., 450 nm, read-out: HIV (CEM Cells) IC50.

Take `CC(C)C[C@H](N)C(=O)N[C@H](C(=O)N[C@@H](Cc1ccccc1)[C@H](O)CNC[C@@H](O)[C@H](Cc1ccccc1)NC(=O)OC(C)(C)C)C(C)C` [Compound 98, [S-[1R*,2S*(2S*,3R*)]-N-[3-[[3-[[(1,1-Dimethylethoxy)carbonyl]amino]-2-hydroxy-4-phenylbutyl]amino]-2-hydroxy-1(phenylmethyl)propyl]-N^2-(L-leucyl)-L-valinamide, fumarate salt]: the inhibition at 10 µM at HIV protease (setting [2]) amounted to 100%. Also, in experiment [1] (setting [3]), the 50% inhibitory concentration (IC50) is 1.3 µM.

For the molecule `CC(C)(C)OC(=O)N[C@@H](Cc1ccccc1)[C@H](O)CNC[C@@H](O)[C@H](Cc1ccccc1)NC(=O)[C@@H](NC=O)C(C)(C)C` [Compound 234, [1S-[1R*,2S*(2S*,3R*),(R*)]]-[3-[[3-[[3,3-Dimethyl-2-(formylamino)-1-oxobutyl]amino]-2-hydroxy-4-phenylbutyl]amino]-2-hydroxy-1-(phenylmethyl)propyl]carbamic acid, 1,1-dimethylethyl ester], the inhibition at 10 µM on HIV protease (setting [2]) turned out to be 100%. Also, the half-inhibitory concentration (IC50) in experiment [1] (setting [3]) was 0.08 µM.

With `COC(=O)N[C@H](C(=O)N[C@@H](Cc1ccccc1)[C@H](O)CNC[C@@H](O)[C@H](Cc1ccccc1)NC(=O)OC(C)(C)C)C(C)C` (relative stereo) [Compound 247, [1R*,2S*,3R*)]-N-[3-[[3-[[(1,1-Dimethylethoxy)carbonyl]amino]-2-hydroxy-4-phenylbutyl]amino]-2-hydroxy-1-(phenylmethyl)propyl]-N^2-(methoxycarbonyl)-L-valinamide], the inhibition at 10 µM on HIV protease (setting [2]) is 99%. Moreover, the IC50 in experiment [1] (setting [3]) worked out at 0.1 µM.

In the case of `O=C(N[C@@H](Cc1ccccc1)[C@H](O)CNC[C@@H](O)[C@H](Cc1ccccc1)NC(=O)O[C@H]1CCOC1)O[C@H]1CCOC1` [Compound 338, [1S-(1R*,2S*), (R*)]-[Iminobis[2-hydroxy-1-(phenylmethyl)-3,1-propanediyl]]bis[carbamic acid], bis(3-tetrahydrofuranyl)ester], the inhibition at 10 µM at HIV protease (setting [2]) was 99%. The IC50 in experiment [1] (setting [3]) is 0.93 µM.

For the molecule `CC(C)(C)OC(=O)N[C@@H](Cc1ccccc1)[C@H](O)CN(C[C@@H](O)[C@H](Cc1ccccc1)NC(=O)OC(C)(C)CO)C(=O)OCC[Si](C)(C)C` [Compound 164, [R-(R*,S*)]-[[[(Trimethylsilyl)-ethoxy]carbonyl]iminobis[2-hydroxy-1-(phenylmethyl)-3,1-propanediyl]1biscarbamic acid, 1,1-di-methylethyl 2-hydroxy-1,1-dimethylethyl ester], at HIV protease (pH 5.5, read-out: HIV Protease % Inhibition at 10 μM, 10 μM inhibitor, 4% DMSO, 450 μM substrate, pH 5.5, 30 minutes at 37° C., RP-HPLC), the inhibition at 10 µM turned out to be 99%. Further, in experiment [1] (read-out: HIV (CEM Cells) IC50 (μM)), the IC50 came to 0.04 µM.

For the molecule `CC(C)(C)OC(=O)N[C@@H](Cc1ccccc1)[C@H](O)CNC[C@@H](O)[C@H](Cc1ccccc1)NC(=O)OC(C)(C)CCO` [Compound 169, [1S-(1R*,2S*)]-Iminobis[2-hydroxy-1-(phenylmethyl)-3,1-propanediyl]]biscarbamic acid, 1,1-dimethylethyl-3-hydroxy-1,1-dimethylpropyl ester], the inhibition at 10 µM on HIV protease (setting [2]) amounted to 97%. Further, in experiment [1] (setting [3]), the IC50 came out at 0.2 µM.

In the case of `CC(C)(C)NC(=O)N[C@@H](Cc1ccccc1)[C@H](O)CNC[C@@H](O)[C@H](Cc1ccccc1)NC(=O)OC(C)(C)C` [Compound 50, [1S-[1R*,2S*(2S*,3R*)]]-[3-[[3-[[[(1,1-Dimethylethyl)amino]carbonyl]amino]-2-hydroxy-4-phenylbutyl]amino]-2-hydroxy-1-(phenylmethyl)propyl]carbamic acid, 1,1-dimethylethyl ester], at HIV protease (setting [2]), the inhibition at 10 µM is 97%. Also, the IC50 in experiment [1] (setting [3]) is 0.22 µM.

As to `CC(C)[C@H](NC(=O)OC1CCc2ccccc21)C(=O)N[C@@H](Cc1ccccc1)[C@H](O)CNC[C@@H](O)[C@H](Cc1ccccc1)NC(=O)OC(C)(C)C` (stereo partly drawn) [Compound 67, [S-[1R*,2S*(2S*,3R*)]]-N^2-[[2,3-Dihydro-1H-inden-1-yl)oxy]carbonyl]-N-[3-[[3-[[(1,1-dimethylethoxy)carbonyl]amino]-2-hydroxy-4-phenylbutyl]amino]-2-hydroxy-1-(phenylmethyl)propyl]-L-valinamide], the inhibition at 10 µM on HIV protease (setting [2]) is 100%. Besides, in experiment [1] (setting [3]), the half-inhibitory concentration (IC50) was 0.04 µM.

In the case of `CC(C)[C@H](NC(=O)OCc1nc2ccccc2o1)C(=O)N[C@@H](Cc1ccc(O)cc1)[C@H](O)CNC[C@@H](O)[C@H](Cc1ccccc1)NC(=O)OC(C)(C)C` (relative stereo) [Compound 288, [1R*,2S*(2S*,3R*)]-N^2-[[(2-Benzoxazolyl)methoxy]carbonyl]-N-[3-[[3-[[(1.1-dimethylethoxy)carbonyl]amino]-2-hydroxy-4-phenylbutyl]amino]-2-hydroxy-1-[(4-hydroxyphenyl)methyl]propyl]-L-valinamide], the inhibition at 10 µM on HIV protease (setting [2]) was determined as 100%. Moreover, in experiment [1] (setting [3]), the IC50 amounted to 0.47 µM.

Consider `CC(C)(C)OC(=O)N[C@@H](Cc1ccccc1)[C@H](O)CNC[C@@H](O)[C@H](Cc1ccccc1)NC(=O)OC(C)(C)CC#CCc1ccccc1` [Compound 167, [1S-(1R*,2S*))]-[Iminobis[2-hydroxy-1-(phenylmethyl)-3,1-propanediyl]biscarbamic acid, 1,1-dimethylethyl 1,1]-dimethyl-5-phenyl-3-pentynyl ester], for which the inhibition at 10 µM at HIV protease (setting [2]) came to 97%. In addition, the IC50 in experiment [1] (setting [3]) was more than 1.8 µM.

For the molecule `CC(C)(C)OC(=O)N[C@@H](Cc1ccccc1)[C@H](O)CNC[C@@H](O)[C@H](Cc1ccccc1)NC(=O)O[C@@H]1CCc2ccccc21` [Compound 145, [1S-(1R*,2S*)]-[Iminobis[2-hydroxy-1-(phenylmethyl)-3,1-propanediyl)]biscarbamic acid, 1,1-dimethylethyl(R)-2,3-dihydro-1H-inden-1-yl ester], at HIV protease (setting [2]), the inhibition at 10 µM came out at 95%. The IC50 in experiment [1] (setting [3]) was more than 2.2 µM.

`CC(C)(C)OC(=O)N[C@@H](Cc1ccccc1)[C@H](O)CNC[C@@H](O)[C@H](Cc1ccccc1)NC(=O)[C@@H](NC(=O)OCc1ccccc1)C(C)(C)C` [Compound 88, [1S-[1R*-[1R*,2S*(2S*,3R*)]]]-2,2-Dimethyl-1-[[[3-[[3-[[(1,1-Dimethylethoxcy)-carbonylamino]-2-hydroxy-4-phenylbutyl]amino]-2-hydroxy-1-(phenylmethyl),propyl]amino]-carbonyl]propoyl]carbamic acid, phenylmethyl ester]: on HIV protease (setting [2]), the inhibition at 10 µM came out at 100%. Also, the IC50 in experiment [1] (setting [3]) was found to be 0.03 µM.

Regarding `COC(=O)N[C@H](C(=O)N[C@@H](Cc1ccc(OCCc2ccccn2)cc1)[C@H](O)CNC[C@@H](O)[C@H](Cc1ccccc1)NC(=O)OC(C)(C)C)C(C)(C)C` (relative stereo) [Compound 297, [1R*,2S*(2S*,3R*)]-N-[3-[[3-[[(1,1-Dimethylethoxy)carbonyl]amino]-2-hydroxy-4-phenylbutyl]amino]-2-hydroxy-1-[[4-[r2-(2-pyridinyl)ethoxy]phenyl]methyl]propyl]-N^2-(2-methoxycarbonyl)-3-methyl-L-valinamide], the inhibition at 10 µM at HIV protease (setting [2]) turned out to be 100%. The IC50 in experiment [1] (setting [3]) is 0.05 µM.

For `COC(=O)N[C@H](C(=O)N[C@@H](Cc1ccccc1)[C@H](O)CNC[C@@H](O)[C@H](Cc1ccccc1)NC(=O)OC(C)(C)CO)C(C)(C)C` (relative stereo) [Compound 359, [1R*,2S*(2S*,3R*)]-N-[2-Hydroxy-3-[[2-hydroxy-3-[[(2-hydroxy-1,1-dimethylethoxy)-carbonyl]amino]-4-phenylbutyl]amino]-1-(phenylmethyl)propyl]-N^2-(2-methoxycarbonyl)-3-methyl-L-valinamide], at HIV protease (setting [2]), the inhibition at 10 µM came to 99%. For the same molecule, the half-maximal inhibitory concentration (IC50) in experiment [1] (setting [3]) was 0.56 µM.

For the molecule `CC(C)[C@H](NC(=O)[C@H](C)N)C(=O)N[C@@H](Cc1ccccc1)[C@H](O)CNC[C@@H](O)[C@H](Cc1ccccc1)NC(=O)OC(C)(C)C` [Compound 96, [S-[1R*,2S*(2S*,3R*)]-N-]3-[[3-[[(1,1-Dimethylethoxy)carbonyl]amino]-2-hydroxy-4-phenylbutyl]amino]-2-hydroxy-1(phenylmethyl)propyl]-N^2-(L-alanyl)-L-valinamide, fumarate salt], at HIV protease (setting [2]), the inhibition at 10 µM was 100%. Further, the IC50 in experiment [1] (setting [3]) was more than 7.6 µM.

Regarding `CN(C(=O)OC(C)(C)C)[C@@H](Cc1ccccc1)[C@H](O)CNC[C@@H](O)[C@H](Cc1ccccc1)NC(=O)OC(C)(C)C` [Compound 132, [1S-[1R*,2S*(2S*,3R*)]]-3-[[(1,1-Dimethylethoxy)carbonyl]amino]-2-hydroxy-4-phenylbutyl]amino]-2-hydroxy-1-(phenylmethyl)-propyl]methylcarbamic acid, 1,1-dimethylethyl ester], on HIV protease (setting [2]), the inhibition at 10 µM is 65%. Also, the 50% inhibitory concentration (IC50) in experiment [1] (setting [3]) was more than 3 µM.
